Ends that are not written are not given here. Peptide text beside a SMILES is read from it. * marks the point of attachment. Cbz = O=C(OCc1ccccc1)*; CH2F = FC*
What was measured:
[1] = tested on: HL-60 and THP-1 AML cell lines; assay: MTT cell viability, short versus full length peptide; assay type: cell-based; conditions: 4×10^5 cells
Experimental: FIGS. 29B-29D are graphs depicting killing of AML cells by Survivin peptides. FIG. 29B depicts survivin peptide activity in HL-60 cells, measured by Trypan blue exclusion. FIGS. 29C and 29D depict killing, as measured using MTT, of HL-60 (FIG. 29C) or THP-1 (FIG. 29D) cells by full length Survivin peptide (SEQ ID NO:19), Survivin peptide K79-G83 (SEQ ID NO:20), or scrambled peptide (SEQ ID NO:25 and SEQ ID NO:28).
The activity of a shorter Survivin peptide was also tested in an AML cell line. A shorter cell permeable Survivin peptide was synthesized by fusing the third α-helix of the Antennapedia carrier sequence to the amino-terminus of the Survivin peptide sequence K79-G83 (SEQ ID NO:20). […] The scrambled control peptide ([…]; SEQ ID NO:28) was ineffective (FIGS. 29C, D). For these experiments a higher number of cells was used (4×10^5) to produce a 50% killing efficiency by full length survivin peptide.

[2] = tested on: U937, K562, HL60, THP1 AML cell lines; assay: MTT cell viability in AML cell lines; assay type: cell-based, human
Experimental: FIG. 30 is a graph depicting killing activity of survivin K79-G83 in AML cells. The indicated human AML cell lines (U937, K562, HL60, and THP1) were incubated with scrambled (SEQ ID NO:28) or Survivin (SEQ ID NO:20) peptides and evaluated for cell viability by MTT.
The effect of the K79-G83 Survivin peptide was characterized in more detail for anti-tumor activity in AML. The K79-L87 (SEQ ID NO:19) and K79-G83 peptides (SEQ ID NO:20) were incubated with AML cells, and cell viability was measured using MTT.

HeLa cells [3] = assay: Proteasome or caspase inhibitor effect on GA-mediated Survivin/XIAP degradation, Western blotting; assay type: cell-based, Human; conditions: for reversal of loss of XIAP expression caused by GA: HeLa cell extracts, GA with inhibitor
Experimental: Extracts from HeLa cells treated with 1 μM GA for 30 hours in the presence or absence of 5 μM of the proteasome inhibitor lactacystin were analyzed for changes in Survivin or β-actin levels by Western blotting. Antibodies to actin were obtained from Sigma. […] Levels of β-actin were unaffected by treatment in this experiment.
HeLa cell extracts were collected after exposure to the indicated concentrations of GA in the absence (None) or in the presence of the proteasome inhibitor, lactacystin or the broad spectrum caspase inhibitor, ZVAD-fink. Loss of XIAP expression in the presence of Hsp90 inhibition by GA is reversed by lactacystin but not ZVAD-fink, as indicated by Western blotting for XIAP depicted in FIG. 5C (* indicates non-specific band).

HeLa cells [4] = assay: Apoptosis by hypodiploid DNA content, propidium iodide flow cytometry; assay type: cell-based, Human; conditions: 24 hours
Experimental: For determination of apoptosis by hypodiploid DNA content, various tumor cell lines were incubated with increasing concentrations of the cell permeable control scrambled (SEQ ID NO:25) or Survivin peptide (SEQ ID NO:19), harvested after 24 hours (floaters plus attached cells) fixed in 70% ethanol, and stained with 10 μg/ml propidium iodide plus 100 μg/ml RNAse A and 0.05% Triton™ X-100 in PBS, pH 7.4. Cultures were analyzed for DNA content by flow cytometry. For colorimetric quantification of cell viability, an MTT assay was used. Various tumor cell lines were incubated with increasing concentrations of the cell permeable retro-inverso control scrambled P4 or the Survivin-specific P3 peptide, incubated for 24 hours at 37° C. washed twice with Bruffs Media, and 4,5-dimethylthiazol-2-yl)-2,5-diphenyltetrazolium bromide (MTT) (Sigma, St. Louis, Mo.) was added at 5 mg/ml. Decrease in cell viability was analyzed for loss of colorimetric absorption at OD405.
HeLa cells were incubated with the indicated increasing concentrations of the cell permeable Control (scrambled) or Survivin peptide, harvested after 24 hours at 37° C., and analyzed by hypodiploid DNA content by propidium iodide staining and flow cytometry.
HeLa cells were incubated with chemotherapeutic drugs Taxol™ (10 μM) or adriamycin (300 nM), or cell permeable control peptide or the Survivin peptide, harvested after 24 hours, and analyzed for induction of apoptosis by hypodiploid DNA content by flow cytometry.

recombinant Hsp90 = molecular target: T1, recombinant Hsp90 (Homo sapiens, UniProt P07900, S63T); assay: ELISA binding to recombinant Hsp90
T1 construct: GST-Hsp90 (amino acids 1-732); GST (N); made in house; host or cells: E. coli
From the text: (§1) FIG. 31 is a graph depicting Hsp90 binding by Survivin peptides, measured by ELISA. Data are the mean±S.D. of two independent experiments.

survivin-Hsp90 = molecular target: T2, survivin-Hsp90 (Homo sapiens, UniProt P07900, S63T); assay: ELISA inhibition of recombinant survivin binding to Hsp90
T2 construct: GST-Hsp90 (amino acids 1-732); GST (N); made in house; host or cells: E. coli
From the text: as §1

[5] = molecular target: T3, Hsp90-Survivin binding interactions (Homo sapiens, UniProt P07900, S63T); assay: ELISA: Survivin peptides inhibiting Hsp90 binding to immobilized Survivin; conditions: 20 μg/ml peptide preincubated with Hsp90, 16 hours, 4° C.
T3 construct: GST-Hsp90 (amino acids 1-732); GST (N); made in house; host or cells: E. coli
Experimental: ELISA experiments were performed by immobilizing recombinant Survivin (r-Survivin) ([…]) or recombinant Hsp90 (r-Hsp90) (10 μg/ml) on plastic microtiter wells (Immulon™-2, Dynatech Laboratories, Chantilly, Va.) using bicarbonate buffer, pH 9.5 (100 μl/well) for 18 hours at 4° C. Bound protein was blocked with 3% gelatin for 1 hour at 37° C., rinsed with washing buffer (TBS pH 7.4, 0.1% Tween™, 0.1% BSA) and incubated for 1 hour at 37° C. with different concentrations of a test protein to determine if the test protein bound the immobilized protein.
ELISA experiments were performed essentially as in Example 2 with the following variations. 20 μg/ml of each recombinant Survivin peptide (expressed in E. coli) was preincubated with Hsp90 at 2.5 mg/ml for 16 hours at 4° C. After binding and blocking of full length Survivin to wells in a microtiter plate, the preincubated mixtures of Hsp90 and Survivin peptides were added to the wells and incubated for 1 hour at 37° C. Wells were washed, incubated with primary antibody, washed again, and bound antibody was quantified as described above. Each experiment was repeated three times and the standard deviation is shown.

Hsp90 = molecular target: T4, Hsp90 (Homo sapiens, UniProt P07900); assay: Surface plasmon resonance of immobilized biotin peptides with r-Hsp90; assay type: binding
T4 construct: GST-Hsp90 (amino acids 1-732); GST (N); made in house; host or cells: E. coli
Experimental: Wild type Survivin peptide 77 to 91 (SEQ ID NO:22) or the corresponding C84A mutant 77-91 peptide (HKKHSSGAAFLSVKK; SEQ ID NO:23) was synthesized with an N-terminal biotin and immobilized on streptavidin coated chips (SA5) purchased from Biacore Inc. (Piscataway, N.J.). Increasing concentrations (100 nM-10 μM) of purified r-Hsp90 suspended in 10 mM HEPES, 150 mM NaCl, 3 mM EDTA, 0.005% polysorbate-20, 1 mM DTT, were then injected in […] over the immobilized peptides. A constant flow rate of […] was maintained, and the dissociation phase was followed for 300 seconds. Surfaces were regenerated using […] of 1 M NaCl/50 mM NaOH after each dissociation phase. A new injection cycle was initiated only after 10 min post-regeneration to ensure complete removal of NaCl and NaOH. The collected data were analyzed using the Biaeval 3.0 software package from Biacore Inc.
Sensorgrams (FIG. 10B) indicate binding of the Survivin peptides to Hsp90, measured by an increase in surface plasmon resonance during analyte flow over the chip surface, with the nonspecific signal from the biotin-only surface subtracted.

HeLa cells [6] = assay: Stability of Hsp90 client proteins and caspase-3 proform, Western blot; assay type: cell-based, Human; conditions: increasing concentrations, 24 hours
Experimental: To determine whether intracellular loading of the Survivin cell permeable peptide reproduced the effect of mAb 8E2 that disrupts the Survivin-Hsp90 interaction in destabilizing Survivin levels in vivo (FIG. 8), HeLa cells were loaded with the indicated increasing concentrations of cell permeable control (SEQ ID NO:25) or Survivin (SEQ ID NO:19) cell permeable peptide, harvested after 24 hours, and analyzed for stability of Hsp90 client proteins, Survivin and Akt. Polyclonal antibody to Akt was obtained from Cell Signaling Technology (Cat. No. 9272).

[7] = tested on: DU145, PC3, HeLa tumor cell lines; assay: MTT colorimetric viability assay, tumor cell lines; assay type: cell-based; conditions: increasing concentrations, 24 hours
Experimental: (§2) FIGS. 22A and 22B compares the effect of P31 (SEQ ID NO:19) or P33 (SEQ ID NO:25) on apoptosis of tumor cell lines (FIG. 22A) and normal cell lines (FIG. 22B). The following tumor cell lines DU145 (prostate cancer, circles), PC3 (prostate cancer, triangles), or HeLa (cervical carcinoma, squares) were treated with the indicated increasing concentrations of P31 peptide (solid symbols) or control P33 peptide (open symbols), harvested after 24 hours, and analyzed for cell viability using an MTT colorimetric assay. For normal cell types (right panel), HFF (human foreskin fibroblasts, squares), HGF (human fibroblasts, triangles) or WS-1 (human epithelial cells, circles) were treated with P31 (solid symbols) or control scrambled peptide P33, harvested after 24 hours and analyzed for overall cell viability by MTT colorimetric assay. All cell lines were from ATCC.

[8] = tested on: HFF, HGF, WS-1 normal cells; assay: MTT colorimetric viability assay, normal cell types; assay type: cell-based, human; conditions: 24 hours
Experimental: as §2

HeLa cells [9] = assay: Annexin V labeling and propidium iodide multiparametric flow cytometry; assay type: cell-based, Human; conditions: increasing concentrations, eight hour incubation, 37° C.
Experimental: HeLa cell cultures were treated with the indicated increasing concentrations of P31 (Survivin) or P33 (Control; SEQ ID NO:25) peptides, harvested after an eight hour incubation at 37° C., and analyzed for multiparametric flow cytometry of Annexin V labeling (X-axis, a marker of apoptosis) and propidium iodide staining (Y-axis, a marker of cell death).

PC3 cells = assay: Immunoblotting of Hsp90 client proteins; assay type: cell-based; conditions: 75 and 150 μM, 8 hours
Experimental: Survivin affects the stability and function of Hsp90 client proteins in tumor cells. PC3 cells were untreated or exposed to 75 and 150 μM concentrations of the survivin peptide (SEQ ID NO:19) (or control scrambled peptide; SEQ ID NO:25) for 8 hours and processed for immunoblotting against the Hsp90 client proteins survivin, AKT, and CDK-6. […] Conversely, the levels of Hsp90, Hsp70, and PCNA were not affected (FIG. 26A).

HL-60 cells = assay: Cell killing by trypan blue exclusion; assay type: cell-based
Experimental: The expression and function of the survivin-Hsp90 pathway in acute myelogenous leukemia (AML) cell lines was analyzed. Survivin was abundantly expressed in four AML cell lines, U937, K-562, THP-1 and HL-60, by Western blotting (FIG. 29A).

Compound: RQIKIWFQNRRMKWKKSGKHS (Synthetically generated peptide) [SEQ ID NO:28, scrambled control peptide for K79-G83, reference compound]
- reduction of cell viability (MTT) [1]: ineffective
- cell viability (MTT), killing of AML cell lines [2]: no effect

Compound: COC(=O)C[C@H](NC(=O)[C@H](C)NC(=O)[C@@H](NC(=O)OCc1ccccc1)C(C)C)C(=O)CF [ZVAD-fink, Z-Val-Ala-Asp (OMe)-CH2F] (Cbz-Val-Ala-Asp(OMe)-CH2F)
- reversal of loss of XIAP expression caused by GA (HeLa cells [3]): not

Compound: COc1cccc2c1C(=O)c1c(O)c3c(c(O)c1C2=O)C[C@@](O)(C(=O)CO)C[C@@H]3O[C@H]1C[C@H](N)[C@H](O)[C@H](C)O1 [adriamycin]
- loss of cell viability by hypodiploid DNA content (HeLa cells [4]; 300 nM): does not result in significant loss of cell viability

Compound: RQIKIWFQNRRMKWKKKHSSG (Synthetically generated peptide) [SEQ ID NO:20]
- reduction of cell viability (MTT) [1]: considerably more active than the P31 peptide
- cell viability (MTT), killing of AML cell lines [2]: efficiently killed all AML cell lines tested
- binding to recombinant Hsp90 in vitro (recombinant Hsp90): comparably bound recombinant Hsp90
- inhibition of binding of recombinant survivin to Hsp90 (survivin-Hsp90): inhibited the binding of recombinant survivin to Hsp90 in a dose-dependent manner

Compound: KHSSGCAFLSVK [SEQ ID NO:3]
- inhibition of Hsp90-Survivin binding interactions [5]: especially effective inhibitor

Compound: HKKHSSGAAFLSVKK (Synthetically generated peptide) [SEQ ID NO:23, C84A mutant 77-91 peptide]
- on-rates, wild type versus C84A peptide (Hsp90): similar

Compound: CC(=O)N[C@@H](CSC(=O)[C@]1([C@@H](O)C(C)C)NC(=O)[C@H](C)[C@@H]1O)C(=O)O [lactacystin]
- Survivin levels following lactacystin and GA treatment (HeLa cells [3]; 1 μM GA for 30 hours, 5 μM lactacystin): at or above the levels of untreated cells
- reversal of loss of XIAP expression caused by GA (HeLa cells [3]): reversed

Compound: RQIKIWFQNRRMKWKKSKLACFSHG (Synthetically generated peptide) [P33, reference compound]
- cell population with hypodiploid DNA content (apoptotic) (HeLa cells [4]; peptides, comparison with chemotherapeutic drugs): not
- levels of Survivin and Akt (HeLa cells [6]): ineffective
- cell death in cancer cell lines (MTT) [7]: did not induce cell death in cancer or normal cell types
- cell death in normal cell types (MTT) [8]: did not induce cell death in cancer or normal cell types
- induction of apoptosis (Annexin V / propidium iodide) (HeLa cells [9]): ineffective
- Hsp90 client proteins (survivin, Akt, CDK-4, CDK-6) (PC3 cells): not
- cell killing (trypan blue exclusion) (HL-60 cells): ineffective
- cell viability (MTT), killing of AML cell lines [2]: no effect

Compound: CC(=O)O[C@H]1C(=O)[C@@]2(C)[C@H]([C@H](OC(=O)c3ccccc3)[C@]3(O)C[C@H](OC(=O)[C@H](O)[C@@H](NC(=O)c4ccccc4)c4ccccc4)C(C)=C1C3(C)C)[C@]1(OC(C)=O)CO[C@@H]1C[C@@H]2O [Taxol, paclitaxel]
- loss of cell viability by hypodiploid DNA content (HeLa cells [4]; 10 μM): does not result in significant loss of cell viability

From patent US8420777B2, “Compounds that inhibit Hsp90 protein-protein interactions with IAP proteins” (University of Massachusetts, priority 2004, dated 2013)
